{"source": "ChEMBL document CHEMBL5506043", "about": "“A β-Carboline Derivate PAD4 Inhibitor Reshapes Neutrophil Phenotype and Improves the Tumor Immune Microenvironment against Triple-Negative Breast Cancer” (J Med Chem, 2024)", "key": {"4T1 [1]": {"system": "4T1", "test": "Antimetastatic activity in starved mouse 4T1 cells assessed as inhibition of cell migration by measuring reduction in number of metastatic cells incubated for 12 hrs by crystal violet staining based transwell assay", "format": "functional", "details": "dose 0.5-2 µM"}, "[2]": {"test": "Toxicity in female BALB/c mouse implanted with mouse orthotopic 4T1-Luc cells assessed as effect on serum urea level at 1 to 10 mg/kg, iv administered via tail vein every 2 days for 9 times for 17 days", "format": "organism-based", "details": "in vivo, 408 h, dose 1-10 mg/kg, time 17 day"}, "Mus musculus [3]": {"system": "Mus musculus", "test": "(§1) Induction of tumor microenvironment in female BALB/c mouse implanted with mouse orthotopic 4T1-Luc cells assessed as downregulation of myeloid derived suppressive G-MDSC cells at 1 to 10 mg/kg, iv administered via tail vein every 2 days for 9 times for 17 days by single-cell mass spectrometry flow cytometry analysis", "format": "functional, organism-based", "details": "dose 1-10 mg/kg, time 17.0 day"}, "4T1-Luc [4]": {"system": "4T1-Luc", "test": "Antitumor activity against mouse orthotopic 4T1-Luc cells implanted in female BALB/c mouse assessed as improvement in animal survival at 10 mg/kg, iv administered via tail vein every 2 days for 9 times for 17 days and measured every 2 days", "format": "functional, organism-based", "details": "time 17.0 day"}, "4T1-Luc [5]": {"system": "4T1-Luc", "test": "Antimetastatic activity against mouse orthotopic 4T1-Luc cells implanted in iv dosed female BALB/c mouse assessed as reduction in lung metastasis administered via tail vein every 2 days for 9 times for 17 days by IVIS live cell imaging analysis", "format": "functional, organism-based", "details": "dose 1-10 mg/kg, time 17.0 day"}, "[6]": {"test": "Toxicity in female BALB/c mouse implanted with mouse orthotopic 4T1-Luc cells assessed as morphological changes in spleen at 1 to 10 mg/kg, iv administered via tail vein every 2 days for 9 times for 17 days by H and E staining based analysis", "format": "organism-based", "details": "in vivo, 408 h, dose 1-10 mg/kg, time 17 day"}, "4T1-Luc [7]": {"system": "4T1-Luc", "test": "Antitumor activity against mouse orthotopic 4T1-Luc cells implanted in female BALB/c mouse assessed as increase in neutrophil infiltration in tumor at 10 mg/kg, iv administered via tail vein every 2 days for 9 times for 17 days by immunohistochemical staining based analysis", "format": "functional, organism-based", "details": "time 17.0 day"}, "4T1-Luc [8]": {"system": "4T1-Luc", "test": "Antitumor activity against mouse orthotopic 4T1-Luc cells implanted in iv dosed female BALB/c mouse assessed as reduction in tumor volume administered via tail vein every 2 days for 9 times for 17 days and measured every 2 days", "format": "functional, organism-based", "details": "dose 1-10 mg/kg, time 17.0 day"}, "[9]": {"test": "Antitumor activity against mouse orthotopic 4T1-Luc cells implanted in female BALB/c mouse assessed as tumor growth inhibition at 10 mg/kg, iv administered via tail vein every 2 days for 9 times for 17 days and measured every 2 days relative to control", "format": "functional", "details": "408 h, time 17 day, read-out: TGI"}, "[10]": {"test": "Toxicity in female BALB/c mouse implanted with mouse orthotopic 4T1-Luc cells assessed as morphological changes in kidney at 1 to 10 mg/kg, iv administered via tail vein every 2 days for 9 times for 17 days by H and E staining based analysis", "format": "organism-based", "details": "in vivo, 408 h, dose 1-10 mg/kg, time 17 day"}, "[11]": {"test": "Terminal half life in male Sprague-Dawley rat at 3.5 mg/kg, iv by LC-MS/MS analysis", "format": "ADME, organism-based", "details": "in vivo"}, "[12]": {"test": "Tmax in male Sprague-Dawley rat at 3.5 mg/kg, iv by LC-MS/MS analysis", "format": "ADME, organism-based", "details": "in vivo"}, "Mus musculus [13]": {"system": "Mus musculus", "test": "Induction of tumor microenvironment in female BALB/c mouse implanted with mouse orthotopic 4T1-Luc cells assessed as increase in MHC-II expression for MHC-II-negative tumor-associated neutrophils at 1 to 10 mg/kg, iv administered via tail vein every 2 days for 9 times for 17 days", "format": "functional, organism-based", "details": "dose 1-10 mg/kg, time 17.0 day"}, "4T1 [14]": {"system": "4T1", "test": "Upregulation of feedback regulation-mediated PAD4 protein expression in mouse 4T1 cells at 0.5 to 2 uM measured after 48 hrs by immunoblot analysis", "format": "functional, cell-based", "details": "dose 0.5-2 µM"}, "[15]": {"test": "Toxicity in female BALB/c mouse implanted with mouse orthotopic 4T1-Luc cells assessed as effect on serum ALT level at 1 to 10 mg/kg, iv administered via tail vein every 2 days for 9 times for 17 days", "format": "organism-based", "details": "in vivo, 408 h, dose 1-10 mg/kg, time 17 day"}, "Mus musculus [16]": {"system": "Mus musculus", "test": "Induction of tumor microenvironment in female BALB/c mouse implanted with mouse orthotopic 4T1-Luc cells assessed as increase in MHC-II expression for MHC-II-positive tumor-associated neutrophils at 1 to 10 mg/kg, iv administered via tail vein every 2 days for 9 times for 17 days", "format": "functional, organism-based", "details": "dose 1-10 mg/kg, time 17.0 day"}, "[17]": {"test": "AUC (0 to t) in male Sprague-Dawley rat at 3.5 mg/kg, iv by LC-MS/MS analysis", "format": "ADME, organism-based", "details": "in vivo"}, "MDA-MB-468": {"system": "MDA-MB-468", "test": "Antiproliferative activity against human MDA-MB-468 cells assessed as inhibition of cell growth incubated for 48 hrs by MTT assay", "format": "functional, cell-based", "details": "MDA-MB-468, 48 h"}, "Mus musculus [18]": {"system": "Mus musculus", "test": "Induction of tumor microenvironment in female BALB/c mouse implanted with mouse orthotopic 4T1-Luc cells assessed as decrease in PD-L1 expression for PD-L1-positive/MHC-II-positive tumor-associated neutrophils at 1 to 10 mg/kg, iv administered via tail vein every 2 days for 9 times for 17 days", "format": "functional, organism-based", "details": "dose 1-10 mg/kg, time 17.0 day"}, "[19]": {"test": "Toxicity in female BALB/c mouse implanted with mouse orthotopic 4T1-Luc cells assessed as effect on serum AST level at 1 to 10 mg/kg, iv administered via tail vein every 2 days for 9 times for 17 days", "format": "organism-based", "details": "in vivo, 408 h, dose 1-10 mg/kg, time 17 day"}, "[20]": {"test": "Clearance in male Sprague-Dawley rat at 3.5 mg/kg, iv by LC-MS/MS analysis", "format": "ADME, organism-based", "details": "in vivo"}, "[21]": {"biological_target": "Protein-arginine deiminase type-4 (Mus musculus) (UniProt Q9Z183)", "sequence (Q9Z183 whole entry)": "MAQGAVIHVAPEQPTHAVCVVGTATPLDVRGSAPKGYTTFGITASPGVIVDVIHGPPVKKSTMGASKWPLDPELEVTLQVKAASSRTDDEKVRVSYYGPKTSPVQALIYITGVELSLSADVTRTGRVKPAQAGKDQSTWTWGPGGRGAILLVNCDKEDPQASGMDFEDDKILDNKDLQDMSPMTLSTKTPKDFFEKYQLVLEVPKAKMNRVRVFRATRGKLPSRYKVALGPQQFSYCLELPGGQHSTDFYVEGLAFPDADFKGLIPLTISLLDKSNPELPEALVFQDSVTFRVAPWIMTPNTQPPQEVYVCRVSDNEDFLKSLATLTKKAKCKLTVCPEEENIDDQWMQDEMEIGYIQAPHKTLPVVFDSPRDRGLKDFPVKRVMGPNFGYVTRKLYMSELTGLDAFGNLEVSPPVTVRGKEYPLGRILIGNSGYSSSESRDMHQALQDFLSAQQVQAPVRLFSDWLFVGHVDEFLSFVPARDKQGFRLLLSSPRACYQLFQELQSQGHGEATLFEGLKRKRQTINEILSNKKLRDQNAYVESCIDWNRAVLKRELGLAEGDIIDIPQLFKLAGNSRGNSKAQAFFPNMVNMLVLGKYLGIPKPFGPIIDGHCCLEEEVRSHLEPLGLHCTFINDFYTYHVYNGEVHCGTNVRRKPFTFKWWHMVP", "test": "Inhibition of PAD4 in mouse 4T1 cells assessed as reduction in histone H3 citrullination measured after 48 hrs by immunoblot analysis", "format": "cell-based", "details": "dose 0.5-2 µM"}, "[22]": {"test": "AUC (0 to infinity) in male Sprague-Dawley rat at 3.5 mg/kg, iv by LC-MS/MS analysis", "format": "ADME, organism-based", "details": "in vivo"}, "4T1-Luc [23]": {"system": "4T1-Luc", "test": "Antimetastatic activity against mouse orthotopic 4T1-Luc cells implanted in iv dosed female BALB/c mouse assessed as reduction in lung metastasis administered via tail vein every 2 days for 9 times for 17 days by H and E staining based analysis", "format": "functional, organism-based", "details": "dose 1-10 mg/kg, time 17.0 day"}, "Mus musculus [24]": {"system": "Mus musculus", "test": "as §1, with “m1 macrophage polarization by measuring upregulation” for “downregulation”, “conventional dendritic” for “myeloid derived suppressive G-MDSC”", "format": "functional, organism-based", "details": "dose 1-10 mg/kg, time 17.0 day"}, "Neutrophil": {"system": "Neutrophil", "test": "In vivo inhibition of PAD4 in female BALB/c mouse implanted with mouse orthotopic 4T1-Luc cells assessed as inhibition of neutrophil extracellular traps formation in tumor at 10 mg/kg, iv administered via tail vein every 2 days for 9 times for 17 days by immunohistochemical staining based analysis", "format": "functional, organism-based", "details": "time 17.0 day"}, "[25]": {"biological_target": "Protein-arginine deiminase type-4 (Mus musculus) (UniProt Q9Z183)", "test": "Inhibition of PAD4 in BALB/c mouse bone marrow neutrophils assessed as reduction in neutrophil extracellular traps formation at 2 uM preincubated for 2 hrs followed by calcium ionophore A23187 addition and measured after 2 hrs by Hoechst 33342/Ly6G staining based laser confocal microscopic analysis", "format": "tissue-based", "details": "time 4.0 hrs"}, "Mus musculus [26]": {"system": "Mus musculus", "test": "as §1, with “decrease in proportion” for “downregulation”, “MHC-II-negative tumor-associated neutrophils” for “myeloid derived suppressive G-MDSC cells”", "format": "functional, organism-based", "details": "dose 1-10 mg/kg, time 17.0 day"}, "4T1-Luc [27]": {"system": "4T1-Luc", "test": "Antitumor activity against mouse orthotopic 4T1-Luc cells implanted in iv dosed female BALB/c mouse assessed as reduction in tumor weight administered via tail vein every 2 days for 9 times for 17 days and measured every 2 days", "format": "functional, organism-based", "details": "dose 1-10 mg/kg, time 17.0 day"}, "[28]": {"biological_target": "Protein-arginine deiminase type-4 (Homo sapiens, UniProt Q9UM07)", "sequence (Q9UM07 whole entry)": "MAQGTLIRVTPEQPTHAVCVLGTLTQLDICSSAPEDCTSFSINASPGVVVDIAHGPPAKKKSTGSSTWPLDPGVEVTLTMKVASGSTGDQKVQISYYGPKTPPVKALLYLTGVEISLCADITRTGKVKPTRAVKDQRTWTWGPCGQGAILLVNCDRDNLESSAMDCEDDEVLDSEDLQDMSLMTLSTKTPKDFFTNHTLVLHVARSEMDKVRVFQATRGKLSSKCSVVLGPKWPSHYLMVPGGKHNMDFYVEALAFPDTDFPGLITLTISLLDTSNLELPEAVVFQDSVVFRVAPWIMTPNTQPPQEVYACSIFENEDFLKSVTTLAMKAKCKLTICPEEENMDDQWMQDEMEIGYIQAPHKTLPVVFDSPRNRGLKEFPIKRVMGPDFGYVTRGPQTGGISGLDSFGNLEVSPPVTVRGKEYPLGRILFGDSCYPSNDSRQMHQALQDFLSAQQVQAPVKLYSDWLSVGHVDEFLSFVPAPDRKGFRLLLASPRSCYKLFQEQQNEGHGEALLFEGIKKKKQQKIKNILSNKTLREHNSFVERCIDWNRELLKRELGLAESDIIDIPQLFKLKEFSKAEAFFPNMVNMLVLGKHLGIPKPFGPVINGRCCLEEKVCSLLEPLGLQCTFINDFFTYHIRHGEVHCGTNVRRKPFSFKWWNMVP", "test": "Inhibition of PAD4 (unknown origin) using Nalpha-benzoyl-L-arginine ethyl ester as substrate preincubated for 60 mins followed by substrate addition and measured after 90 mins by colorimetric analysis"}, "4T1 [29]": {"system": "4T1", "test": "Antiproliferative activity against mouse 4T1 cells assessed as inhibition of cell growth incubated for 48 hrs by MTT assay", "format": "functional, cell-based", "details": "4T1, 48 h"}}, "note": "Calls of active or inactive are those of the source. No cut-off for these calls is given here.", "data": [{"compound": "N=C(CCl)NCCC[C@H](NC(=O)c1cc2c([nH]c3ccccc32)c(-c2ccccc2)n1)C(=O)NCc1ccccc1", "values": [{"measurement": "Activity", "setting": "4T1 [1]", "result": "Dose-Dependent Effect"}, {"measurement": "Activity", "setting": "[2]", "result": "Non-Toxic"}, {"measurement": "Activity", "setting": "Mus musculus [3]", "result": "Active"}, {"measurement": "Activity", "setting": "4T1-Luc [4]", "result": "Active"}, {"measurement": "Activity", "setting": "4T1-Luc [5]", "result": "Dose-Dependent Effect"}, {"measurement": "Activity", "setting": "[6]", "result": "Non-Toxic"}, {"measurement": "Activity", "setting": "4T1-Luc [7]", "result": "Active"}, {"measurement": "Activity", "setting": "4T1-Luc [8]", "result": "Dose-Dependent Effect"}, {"measurement": "inhibition in vivo at 10 mg/kg", "setting": "[9]", "result": 61.8, "unit": "%"}, {"measurement": "Activity", "setting": "[10]", "result": "Non-Toxic"}, {"measurement": "beta t1/2", "setting": "[11]", "result": 15, "unit": "min"}, {"measurement": "Tmax", "setting": "[12]", "result": 4.8, "unit": "min"}, {"measurement": "Activity", "setting": "Mus musculus [13]", "result": "Active"}, {"measurement": "Activity", "setting": "4T1 [14]", "result": "Active"}, {"measurement": "Activity", "setting": "[15]", "result": "Non-Toxic"}, {"measurement": "Activity", "setting": "Mus musculus [16]", "result": "Active"}, {"measurement": "AUC(0-t)", "setting": "[17]", "result": 9.53, "unit": "ng·h/mL"}, {"measurement": "IC50", "setting": "MDA-MB-468", "result": 2340, "unit": "nM"}, {"measurement": "Activity", "setting": "Mus musculus [18]", "result": "Active"}, {"measurement": "Activity", "setting": "[19]", "result": "Non-Toxic"}, {"measurement": "CL", "setting": "[20]", "result": 1754, "unit": "mL/min/kg"}, {"measurement": "inhibition", "setting": "[21]", "result": "Dose-Dependent Effect"}, {"measurement": "AUC", "setting": "[22]", "result": 17346.55, "unit": "ng·h/mL"}, {"measurement": "Activity", "setting": "4T1-Luc [23]", "result": "Dose-Dependent Effect"}, {"measurement": "Activity", "setting": "Mus musculus [24]", "result": "Active"}, {"measurement": "inhibition", "setting": "Neutrophil", "result": "Active"}, {"measurement": "inhibition", "setting": "[25]", "result": "Active"}, {"measurement": "Activity", "setting": "Mus musculus [26]", "result": "Active"}, {"measurement": "Activity", "setting": "4T1-Luc [27]", "result": "Dose-Dependent Effect"}, {"measurement": "IC50", "setting": "[28]", "result": 790, "unit": "nM"}, {"measurement": "IC50", "setting": "4T1 [29]", "result": 2390, "unit": "nM"}]}]}
